Columns and labels:
[1] = organ distribution (including lymph node concentration) after intravenous administration in rats; type: in vivo; conditions: 24 hours after administration
Experimental: After intravenous administration of 100 μmol of total gadolinium/kg of body weight of a polar Gd-chelate with perfluorinated side chains (metal complex X) in rats, the metal content in various organs as well as in the lymph nodes (pooled as mesenteric and peripheral lymph nodes) was determined 24 hours after administration (MW, n=2).
After intravenous administration of 200 μmol of total gadolinium/kg of body weight of a polar Gd-chelate with perfluorinated side chains (metal complex V) in rats, the metal content in various organs as well as in the lymph nodes (pooled as mesenteric and peripheral lymph nodes) was determined 24 hours after administration (MW, n=2).
After intravenous administration of 200 μmol of total gadolinium/kg of body weight of a polar Gd-chelate with perfluorinated side chains (metal complex III) in rats, the metal content in various organs as well as in the lymph nodes (pooled as mesenteric and peripheral lymph nodes) was determined 24 hours after administration (MW, n=2).

iliac lymph nodes = test: lymph node visualization (MRT) after intravenous administration in rats; type: in vivo; conditions: for signal in healthy lymph node tissue (T1-weighted gradient-echo images): very shortly after injection
Experimental: By way of example, the pictures in FIG. 8 show MR images of iliac lymph nodes precontrast and up to 60 minutes after intravenous administration of 100 μmol of Gd/kg of body weight of metal complex X in rats. […] The enhancement was thus 263% at the time of 15 minutes p.i. and 254% at the time of 60 minutes p.i.
By way of example, the pictures in FIG. 11 show MR images of iliac lymph nodes precontrast and up to 60 minutes after intravenous administration of 200 μmol of Gd/kg of body weight of metal complex V in rats. […] The enhancement was thus 147% at the time of 15 minutes p.i. and 230% at the time of 60 minutes p.i.
By way of example, the pictures in FIG. 17 show MR images of iliac lymph nodes precontrast and up to 60 minutes after intravenous administration of 200 μmol of Gd/kg of body weight of metal complex III in rats. […] The enhancement was thus 320% at the time of 15 minutes p.i. and 401% at the time of 60 minutes p.i.

[2] = tested on: primary tumor (VX2-tumor implanted i.m.); test: tumor visualization (MRT) after intravenous administration in VX2-tumor-bearing rabbits; type: in vivo; conditions: 200 μmol of Gd/kg i.v.; for enhancement of the primary tumor (especially the periphery): 15 minutes p.i.; for enhancement of the primary tumor (center of the tumor): 24 hours p.i.
Experimental: The pictures of FIG. 6 show MR images of an iliac lymph node and of a primary tumor (VX2-tumor implanted i.m.) precontrast, 60 minutes and 20 hours after intravenous administration of 100 μmol of Gd/kg of body weight of metal complex I in rabbits. […]

[3] = hydrodynamic micelle diameter (2 Rh) by photon correlation spectroscopy (PCS); type: physicochemical
Outline: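 Aggregate size measured as hydrodynamic diameter (2 Rh) of the amphiphilic compounds in solution by photon correlation spectroscopy.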

[4] = critical micelle formation concentration (CMC) by tensiometry; type: physicochemical
Outline: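 Surface tension of aqueous solutions was measured by tensiometry across a range of compound concentrations. CMC (mol/l) was calculated from the resulting surface-tension-versus-concentration plot.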

myocardial infarction = test: infarction visualization (MRT) after intravenous administration in rats with acutely induced myocardial infarction; type: in vivo
Text: The successful induction of an acute myocardial infarction was confirmed by means of NBT-staining.

[5] = proton relaxivity in plasma (R^1), Minispec P 20; type: physicochemical; conditions: 40° C., 0.47 tesla, bovine plasma
Outline: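 Measured at 40° C. and 0.47 tesla in bovine plasma, with contrast medium at 0.30–1.16 mmol/l. T1 obtained by inversion recovery (180°-TI-90°) over eight measuring points per sequence; relaxivity given in l/mmol·s.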

[6] = Mesenteric lymph nodes, 200 μmol Gd/kg i.v.
[7] = Peripheral lymph nodes, 200 μmol Gd/kg i.v.
[8] = Mesenteric lymph nodes, 100 μmol Gd/kg i.v.
[9] = Peripheral lymph nodes, 100 μmol Gd/kg i.v.

Compound: CC(C(=O)NCC(=O)N(CCOCCC(F)(F)C(F)(F)C(F)(F)C(F)(F)C(F)(F)C(F)(F)C(F)(F)C(F)(F)F)CC(O)CO)N1CCN(CC(=O)[O-])CCN(CC(=O)[O-])CCN(CC(=O)[O-])CC1.[Gd+3] (centres unmarked) [metal complex V]
- metal content ([1]; Blood, 200 μmol Gd/kg i.v.): 15 μmol Gd/L
- metal content, % Dose ([1]; Blood, 200 μmol Gd/kg i.v.): 0.18 % Dose
- metal content ([1]; Brain, 200 μmol Gd/kg i.v.): 4 μmol Gd/L
- metal content, % Dose ([1]; Brain, 200 μmol Gd/kg i.v.): 0.02 % Dose
- metal content ([1]; Carcass, 200 μmol Gd/kg i.v.): 268 μmol Gd/L
- metal content, % Dose ([1]; Carcass, 200 μmol Gd/kg i.v.): 37.93 % Dose
- metal content ([1]; Femur, 200 μmol Gd/kg i.v.): 13 μmol Gd/L
- metal content, % Dose ([1]; Femur, 200 μmol Gd/kg i.v.): 0.05 % Dose
- metal content ([1]; Heart, 200 μmol Gd/kg i.v.): 14 μmol Gd/L
- metal content, % Dose ([1]; Heart, 200 μmol Gd/kg i.v.): 0.02 % Dose
- metal content ([1]; Intestine, 200 μmol Gd/kg i.v.): 113 μmol Gd/L
- metal content, % Dose ([1]; Intestine, 200 μmol Gd/kg i.v.): 1.56 % Dose
- metal content ([1]; Kidneys, 200 μmol Gd/kg i.v.): 436 μmol Gd/L
- metal content, % Dose ([1]; Kidneys, 200 μmol Gd/kg i.v.): 1.77 % Dose
- metal content ([1]; Liver, 200 μmol Gd/kg i.v.): 344 μmol Gd/L
- metal content, % Dose ([1]; Liver, 200 μmol Gd/kg i.v.): 6.34 % Dose
- metal content ([1]; Lung, 200 μmol Gd/kg i.v.): 62 μmol Gd/L
- metal content, % Dose ([1]; Lung, 200 μmol Gd/kg i.v.): 0.17 % Dose
- metal content [1, 6]: 70 μmol Gd/L
- metal content, % Dose [1, 6]: 0.05 % Dose
- metal content ([1]; Muscle, 200 μmol Gd/kg i.v.): 9 μmol Gd/L
- metal content, % Dose ([1]; Muscle, 200 μmol Gd/kg i.v.): 0.02 % Dose
- metal content ([1]; Pancreas, 200 μmol Gd/kg i.v.): 30 μmol Gd/L
- metal content, % Dose ([1]; Pancreas, 200 μmol Gd/kg i.v.): 0.05 % Dose
- metal content [1, 7]: 44 μmol Gd/L
- metal content, % Dose [1, 7]: 0.02 % Dose
- metal content ([1]; Spleen, 200 μmol Gd/kg i.v.): 116 μmol Gd/L
- metal content, % Dose ([1]; Spleen, 200 μmol Gd/kg i.v.): 0.17 % Dose
- metal content ([1]; Stomach, 200 μmol Gd/kg i.v.): 28 μmol Gd/L
- metal content, % Dose ([1]; Stomach, 200 μmol Gd/kg i.v.): 0.08 % Dose
- metal content, % Dose ([1]; Total, 200 μmol Gd/kg i.v.): 48.43 % Dose
- enhancement in lymph node tissue (iliac lymph nodes; 15 minutes p.i., 200 μmol of Gd/kg i.v.): 147%
- enhancement in lymph node tissue (iliac lymph nodes; 60 minutes p.i., 200 μmol of Gd/kg i.v.): 230%
- signal in healthy lymph node tissue (T1-weighted gradient-echo images) (iliac lymph nodes; 200 μmol of Gd/kg i.v.): strong signal rise
- enhancement of the primary tumor (especially the periphery) [2]: 350%
- enhancement of the primary tumor (center of the tumor) [2]: 106%
- 2 Rh (hydrodynamic micelle diameter) [3]: 4.4 nm
- CMC (critical micelle formation concentration) [4]: 3.9e-06 mol/L
- signal in the infarction area (T1-weighted spin-echo images) (myocardial infarction; 24 hours after i.v. 100 μmol of Gd/kg): strong signal rise
- R^1 Plasma (relaxivity) [5]: 19.6 mmol⁻¹ s⁻¹

Compound: COCCN(CCOCCC(F)(F)C(F)(F)C(F)(F)C(F)(F)C(F)(F)C(F)(F)C(F)(F)C(F)(F)F)C(=O)CNC(=O)C(C)N1CCN(CC(=O)[O-])CCN(CC(=O)[O-])CCN(CC(=O)[O-])CC1.[Gd+3] (centres unmarked) [metal complex X]
- metal content ([1]; Blood, 100 μmol Gd/kg i.v.): 1 μmol Gd/L
- metal content, % Dose ([1]; Blood, 100 μmol Gd/kg i.v.): 0.01 % Dose
- metal content ([1]; Brain, 100 μmol Gd/kg i.v.): 1 μmol Gd/L
- metal content, % Dose ([1]; Brain, 100 μmol Gd/kg i.v.): 0.01 % Dose
- metal content ([1]; Carcass, 100 μmol Gd/kg i.v.): 192 μmol Gd/L
- metal content, % Dose ([1]; Carcass, 100 μmol Gd/kg i.v.): 34.01 % Dose
- metal content ([1]; Femur, 100 μmol Gd/kg i.v.): 3 μmol Gd/L
- metal content, % Dose ([1]; Femur, 100 μmol Gd/kg i.v.): 0.01 % Dose
- metal content ([1]; Heart, 100 μmol Gd/kg i.v.): 3 μmol Gd/L
- metal content, % Dose ([1]; Heart, 100 μmol Gd/kg i.v.): 0.01 % Dose
- metal content ([1]; Intestine, 100 μmol Gd/kg i.v.): 65 μmol Gd/L
- metal content, % Dose ([1]; Intestine, 100 μmol Gd/kg i.v.): 1.22 % Dose
- metal content ([1]; Kidneys, 100 μmol Gd/kg i.v.): 150 μmol Gd/L
- metal content, % Dose ([1]; Kidneys, 100 μmol Gd/kg i.v.): 0.65 % Dose
- metal content ([1]; Liver, 100 μmol Gd/kg i.v.): 104 μmol Gd/L
- metal content, % Dose ([1]; Liver, 100 μmol Gd/kg i.v.): 2.34 % Dose
- metal content ([1]; Lung, 100 μmol Gd/kg i.v.): 18 μmol Gd/L
- metal content, % Dose ([1]; Lung, 100 μmol Gd/kg i.v.): 0.05 % Dose
- metal content [1, 8]: 19 μmol Gd/L
- metal content, % Dose [1, 8]: 0.01 % Dose
- metal content ([1]; Muscle, 100 μmol Gd/kg i.v.): 1 μmol Gd/L
- metal content, % Dose ([1]; Muscle, 100 μmol Gd/kg i.v.): 0.00 % Dose
- metal content ([1]; Pancreas, 100 μmol Gd/kg i.v.): 6 μmol Gd/L
- metal content, % Dose ([1]; Pancreas, 100 μmol Gd/kg i.v.): 0.02 % Dose
- metal content [1, 9]: 11 μmol Gd/L
- metal content, % Dose [1, 9]: 0.01 % Dose
- metal content ([1]; Spleen, 100 μmol Gd/kg i.v.): 54 μmol Gd/L
- metal content, % Dose ([1]; Spleen, 100 μmol Gd/kg i.v.): 0.07 % Dose
- metal content ([1]; Stomach, 100 μmol Gd/kg i.v.): 49 μmol Gd/L
- metal content, % Dose ([1]; Stomach, 100 μmol Gd/kg i.v.): 0.18 % Dose
- metal content, % Dose ([1]; Total, 100 μmol Gd/kg i.v.): 38.58 % Dose
- enhancement in lymph node tissue (iliac lymph nodes; 15 minutes p.i., 100 μmol of Gd/kg i.v.): 263%
- enhancement in lymph node tissue (iliac lymph nodes; 60 minutes p.i., 100 μmol of Gd/kg i.v.): 254%
- signal in healthy lymph node tissue (T1-weighted gradient-echo images) (iliac lymph nodes; 100 μmol of Gd/kg i.v.): strong signal rise
- enhancement of the primary tumor (especially the periphery) [2]: 277%
- enhancement of the primary tumor (center of the tumor) [2]: 217%
- 2 Rh (hydrodynamic micelle diameter) [3]: 5.4 nm
- CMC (critical micelle formation concentration) [4]: 7.9e-06 mol/L
- signal in the infarction area (T1-weighted spin-echo images) (myocardial infarction; 6 hours after i.v. 100 μmol of Gd/kg): strong signal rise
- R^1 Plasma (relaxivity) [5]: 25.7 mmol⁻¹ s⁻¹

From US6818203B2, “Use of perfluoroalkyl-containing metal complexes as contrast media in MR-imaging for visualization of plaque, tumors and necroses” (Schering Aktiengesellschaft, priority 2000, dated 2004)
